Experimental data: ChEMBL document CHEMBL1201862, “PubChem BioAssay data set” (2004)
Counter-ions that a name gives are not always drawn. The source made the active and inactive calls.

Legend:
INS1 = assay: beta cell apoptosis inhibitors, cytokine rescue, dose response, luminescence, retest (AID 449756); format: functional, cell-based; conditions: Rattus norvegicus;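 note: cell death triggered by IL-1 beta plus TNF-alpha plus IFN-gamma mixture; protective hits raise ATP signal compared with cytokine alone wells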
Vero = assay: cells; format: functional; conditions: Chlorocebus sabaeus
[1] = T. cruzi growth inhibition in host cells, dose response, cell-based, plate reader, dry powder, set 2 (AID 652275); format: functional
[2] = human group III sPLA2 inhibitors, dose response, biochemical, QFRET, IC50 (AID 743457);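 note: green fluorescence rise as the enzyme cleaves BODIPY PC-A2 in liposomes; potency for inhibition of the enzyme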
[3] = inhibitors of firefly luciferase expression or activity, dose response, H4 neuroglioma cells, luminescence (AID 1990); format: functional, cell-based
[4] = Luminescence Cell-Based Dose Response HTS to Identify Inhibitors of 5'UTR Stem-Loop Driven Prion Protein mRNA Translation in H4 Neuroglioblastoma Cells. [Related pubchem assays: 1827 (Project Summary), 1813 (Primary HTS)]; format: functional
[5] = inhibitors of SNCA 5'UTR-driven reporter translation, confirmation, H4 neuroglioma cells, luminescence (AID 1988); format: functional, cell-based
BJ [6] = assay: cytotoxicity toward Ras-transformed BJeLR fibroblasts, dose response, cell-based, alamar blue fluorescence, cherrypicked samples (AID 2631); format: functional; conditions: Homo sapiens;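 note: confirmatory dose-response assay in RAS-dependent BJ fibroblasts engineered with TERT, LT and ST, with cytotoxicity read by fluorescence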
[7] = target: T1, Carboxy-terminal domain RNA polymerase II polypeptide A small phosphatase 1 (Homo sapiens, UniProt Q9GZU7); assay: inhibitors of CTDSP1, concentration-response testing, biochemical assay, absorbance-based, actives from ultra-high-throughput screening (AID 540297); format: functional
T1 sequence (Q9GZU7 whole entry): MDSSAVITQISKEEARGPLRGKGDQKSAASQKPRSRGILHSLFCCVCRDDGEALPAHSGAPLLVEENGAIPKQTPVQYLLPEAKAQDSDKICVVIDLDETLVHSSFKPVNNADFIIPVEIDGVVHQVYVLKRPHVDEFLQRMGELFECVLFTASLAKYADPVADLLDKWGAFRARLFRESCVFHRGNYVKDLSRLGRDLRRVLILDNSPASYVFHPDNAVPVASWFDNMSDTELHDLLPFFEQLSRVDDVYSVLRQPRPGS

Cytochrome P450 1A2 = target: T2, Cytochrome P450 1A2 (Homo sapiens, UniProt P05177);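 note: PubChem cytochrome P450 panel assay, CYP1A2 panel member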
T2 sequence (P05177 whole entry): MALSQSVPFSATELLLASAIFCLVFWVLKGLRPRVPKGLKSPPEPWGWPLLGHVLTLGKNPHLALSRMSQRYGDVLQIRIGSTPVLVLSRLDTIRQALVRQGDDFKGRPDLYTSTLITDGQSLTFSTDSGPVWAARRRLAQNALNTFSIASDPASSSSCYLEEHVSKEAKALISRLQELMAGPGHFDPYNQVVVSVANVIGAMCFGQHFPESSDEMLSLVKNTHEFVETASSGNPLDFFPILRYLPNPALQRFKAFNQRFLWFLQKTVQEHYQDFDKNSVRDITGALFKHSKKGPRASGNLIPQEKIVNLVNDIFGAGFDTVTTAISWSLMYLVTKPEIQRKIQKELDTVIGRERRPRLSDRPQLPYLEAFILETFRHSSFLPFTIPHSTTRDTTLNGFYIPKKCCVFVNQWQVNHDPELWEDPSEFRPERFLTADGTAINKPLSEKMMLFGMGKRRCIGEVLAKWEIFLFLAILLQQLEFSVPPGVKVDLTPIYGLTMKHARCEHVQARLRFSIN

Cytochrome P450 3A4 = Cytochrome P450 3A4 (Homo sapiens, UniProt P08684);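 note: CYP3A4 tested as one member of a cytochrome P450 panel screen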
[8] = target: T3, Short transient receptor potential channel 4 (Mus musculus, UniProt Q9QUQ5); assay: mouse TRPC4 channel inhibitors, dose response, cell-based, HEK293 TRPC4/mu-opioid, Fluo-4 calcium (AID 434942); format: functional;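 note: potency of inhibitors blocking the TRPC4 calcium response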
T3 sequence (Q9QUQ5 whole entry): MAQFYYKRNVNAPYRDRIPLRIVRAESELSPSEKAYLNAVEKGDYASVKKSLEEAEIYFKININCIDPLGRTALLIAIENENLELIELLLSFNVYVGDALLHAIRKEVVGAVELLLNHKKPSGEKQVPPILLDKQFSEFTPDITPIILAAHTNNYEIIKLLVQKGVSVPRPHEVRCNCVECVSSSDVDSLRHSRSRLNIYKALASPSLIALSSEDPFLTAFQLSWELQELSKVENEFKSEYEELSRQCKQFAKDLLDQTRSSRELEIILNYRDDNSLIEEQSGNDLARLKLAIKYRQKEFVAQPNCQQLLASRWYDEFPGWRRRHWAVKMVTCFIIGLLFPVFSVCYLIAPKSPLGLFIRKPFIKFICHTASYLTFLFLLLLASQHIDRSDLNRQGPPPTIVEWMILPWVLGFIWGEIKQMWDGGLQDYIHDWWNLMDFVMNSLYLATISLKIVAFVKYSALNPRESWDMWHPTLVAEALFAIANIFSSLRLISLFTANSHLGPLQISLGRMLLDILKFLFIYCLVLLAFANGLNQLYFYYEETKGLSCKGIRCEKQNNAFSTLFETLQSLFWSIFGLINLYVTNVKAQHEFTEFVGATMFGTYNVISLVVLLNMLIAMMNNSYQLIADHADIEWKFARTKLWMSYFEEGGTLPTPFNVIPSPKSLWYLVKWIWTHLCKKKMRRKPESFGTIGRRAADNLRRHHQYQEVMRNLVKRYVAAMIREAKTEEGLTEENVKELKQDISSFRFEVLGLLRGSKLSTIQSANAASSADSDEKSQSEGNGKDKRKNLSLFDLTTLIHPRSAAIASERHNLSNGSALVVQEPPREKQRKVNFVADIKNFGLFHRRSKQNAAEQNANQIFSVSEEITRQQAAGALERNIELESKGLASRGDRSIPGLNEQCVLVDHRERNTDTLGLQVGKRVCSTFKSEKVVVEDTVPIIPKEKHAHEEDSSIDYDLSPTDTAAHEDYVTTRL

[9] = target: T4, High affinity choline transporter 1 (Homo sapiens, UniProt Q9GZV3); assay: CHT inhibitors, dose response, cell-based, 5-point CRC, membrane potential dye (AID 504840); format: functional
T4 sequence (Q9GZV3 whole entry): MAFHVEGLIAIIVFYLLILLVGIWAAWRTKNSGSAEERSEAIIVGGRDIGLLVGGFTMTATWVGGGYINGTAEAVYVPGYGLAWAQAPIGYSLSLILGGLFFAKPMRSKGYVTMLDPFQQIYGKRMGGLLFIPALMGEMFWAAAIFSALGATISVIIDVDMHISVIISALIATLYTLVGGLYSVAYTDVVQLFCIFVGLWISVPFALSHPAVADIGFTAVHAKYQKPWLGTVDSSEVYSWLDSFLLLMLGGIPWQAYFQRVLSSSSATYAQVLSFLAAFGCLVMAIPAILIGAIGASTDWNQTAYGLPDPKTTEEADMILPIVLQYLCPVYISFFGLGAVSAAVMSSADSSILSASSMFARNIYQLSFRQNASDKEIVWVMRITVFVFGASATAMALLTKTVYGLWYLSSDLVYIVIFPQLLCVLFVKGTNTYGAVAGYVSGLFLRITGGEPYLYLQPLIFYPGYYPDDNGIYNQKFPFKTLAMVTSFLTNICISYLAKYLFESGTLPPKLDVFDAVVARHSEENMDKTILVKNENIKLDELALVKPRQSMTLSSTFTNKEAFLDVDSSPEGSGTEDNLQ

[10] = system: Streptococcus sp. 'group A'; assay: growth inhibition of control SK(-) GAS strain, dose response, counter-screen for streptokinase expression inhibitor project, luminescence, kanamycin, BacTiterGlo, confirmation (AID 1900); format: functional, organism-based
BJ [11] = assay: cytotoxicity toward BJ-TERT fibroblasts, dose response, cell-based, RAS-independent, luminescence (AID 1933); format: functional; conditions: Homo sapiens
BJ [12] = assay: cells; format: functional, cell-based; conditions: Homo sapiens
BJ [13] = assay: cytotoxicity toward BJ-TERT-LT-ST fibroblasts, dose response, cell-based, RAS-independent, luminescence (AID 1935); format: functional; conditions: Homo sapiens;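 note: BJ fibroblasts immortalized with TERT plus LT and ST oncogenes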
[14] = cytotoxicity toward DRD oncogenic fibroblasts, dose response, cell-based, non-viral oncogenic, luminescence (AID 1934); format: functional; conditions: Homo sapiens
Streptococcus = assay: Group A Streptococcus viability loss, dose response, counter-screen for streptokinase expression inhibitor project, luminescence, BacTiterGlo (AID 1915); format: functional, organism-based;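 note: potency for reduction of bacterial viability or growth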
HEK293 [15] = assay: NOD1 signaling inhibitors, primary screen, cell-based, luminescence, uHTS (AID 1578); format: functional; conditions: Homo sapiens
HEK293 [16] = assay: cells; format: functional, cell-based; conditions: Homo sapiens
HEK293 [17] = assay: cells; format: functional, cell-based; conditions: Homo sapiens; remark: listed apart in the source
[18] = target: Nucleotide-binding oligomerization domain-containing protein 2 (Homo sapiens, UniProt Q9HC29); assay: NOD2 signaling inhibitors, cell-based, luminescence, uHTS, HEK293 (AID 1566); format: functional
HEK293 [19] = assay: NOD2 signaling inhibitors in MDP-stimulated cells, cell-based, uHTS, luminescence (AID 2001); format: functional; conditions: Homo sapiens
HEK293 [20] = assay: cells; format: functional, cell-based; conditions: Homo sapiens; remark: listed apart in the source
[21] = target: T5, Endoribonuclease toxin MazF (Escherichia coli K-12, UniProt P0AE70); assay: MazF toxin RNase activators, dose response, biochemical, fluorescence, single-stranded RNA substrate, uHTS hits (AID 588481); format: functional
T5 sequence (P0AE70 whole entry): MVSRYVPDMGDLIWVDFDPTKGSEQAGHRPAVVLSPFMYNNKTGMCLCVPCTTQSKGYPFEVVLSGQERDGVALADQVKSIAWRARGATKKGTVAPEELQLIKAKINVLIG

[22] = target: T5, Endoribonuclease toxin MazF; assay: fluorescent RNA oligo signal without MazF, dose response, counter-screen for MazEF activator project, biochemical, fluorescence, single-stranded RNase substrate (AID 588502); format: functional
[23] = target: DNA dC->dU-editing enzyme APOBEC-3A (Homo sapiens, UniProt P31941); assay: Dose Response confirmation of small molecule APOBEC3A DNA Deaminase Inhibitors via a fluorescence-based single-stranded DNA deaminase assay. [Related pubchem assays (depositor defined):AID493011, AID493024]; format: functional
[24] = target: DNA dC->dU-editing enzyme APOBEC-3G (Homo sapiens, UniProt Q9HC16); format: functional;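 note: Dose-response counterscreen measuring inhibition of APOBEC3G DNA deaminase activity, run while confirming APOBEC3A inhibitors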
[25] = inhibitors of intracellular T. cruzi replication, confirmation, NIH3T3 host cells, beta-gal luminescence (AID 2044); format: functional, cell-based;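 note: intracellular parasites grown in NIH/3T3 mouse fibroblasts as host cells; luminescent beta-galactosidase reporter signal from transgenic T. cruzi replicating inside host cells; inhibitors lower the luminescence signal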
[26] = cytotoxicity toward NIH3T3 fibroblasts, dose response, counter-screen, cell-based, ATP luminescence, mouse fibroblasts (AID 2010); format: functional;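 note: cells exposed to compound for about 90 hours before reading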

Chain of Cytochrome P450 3A4 (P08684 whole entry): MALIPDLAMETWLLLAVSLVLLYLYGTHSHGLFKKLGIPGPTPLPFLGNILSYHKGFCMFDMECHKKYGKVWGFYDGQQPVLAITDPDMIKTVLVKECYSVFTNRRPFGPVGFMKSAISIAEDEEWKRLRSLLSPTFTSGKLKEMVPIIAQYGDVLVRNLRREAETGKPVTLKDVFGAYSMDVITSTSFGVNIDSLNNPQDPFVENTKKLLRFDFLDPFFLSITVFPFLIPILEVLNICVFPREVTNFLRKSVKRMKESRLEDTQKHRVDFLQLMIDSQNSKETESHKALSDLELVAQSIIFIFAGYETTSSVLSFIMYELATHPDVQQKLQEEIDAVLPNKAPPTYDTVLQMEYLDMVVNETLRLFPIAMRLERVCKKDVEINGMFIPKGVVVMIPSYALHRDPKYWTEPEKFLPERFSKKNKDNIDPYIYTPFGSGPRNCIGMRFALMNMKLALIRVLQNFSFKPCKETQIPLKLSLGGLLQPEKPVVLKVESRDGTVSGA
Chain of DNA dC->dU-editing enzyme APOBEC-3G (Q9HC16 whole entry): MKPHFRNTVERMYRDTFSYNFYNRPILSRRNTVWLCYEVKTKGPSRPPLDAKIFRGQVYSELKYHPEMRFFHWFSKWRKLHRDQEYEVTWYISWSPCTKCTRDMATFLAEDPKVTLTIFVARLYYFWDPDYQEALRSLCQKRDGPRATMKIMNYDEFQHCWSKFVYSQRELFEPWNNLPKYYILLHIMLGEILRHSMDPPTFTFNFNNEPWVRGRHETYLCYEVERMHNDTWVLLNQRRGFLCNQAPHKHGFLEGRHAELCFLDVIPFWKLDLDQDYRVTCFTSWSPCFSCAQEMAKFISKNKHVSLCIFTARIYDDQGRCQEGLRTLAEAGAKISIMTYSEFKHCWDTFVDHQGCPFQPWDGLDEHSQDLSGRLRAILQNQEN
Chain of Nucleotide-binding oligomerization domain-containing protein 2 (Q9HC29 whole entry, the tested form may be a part): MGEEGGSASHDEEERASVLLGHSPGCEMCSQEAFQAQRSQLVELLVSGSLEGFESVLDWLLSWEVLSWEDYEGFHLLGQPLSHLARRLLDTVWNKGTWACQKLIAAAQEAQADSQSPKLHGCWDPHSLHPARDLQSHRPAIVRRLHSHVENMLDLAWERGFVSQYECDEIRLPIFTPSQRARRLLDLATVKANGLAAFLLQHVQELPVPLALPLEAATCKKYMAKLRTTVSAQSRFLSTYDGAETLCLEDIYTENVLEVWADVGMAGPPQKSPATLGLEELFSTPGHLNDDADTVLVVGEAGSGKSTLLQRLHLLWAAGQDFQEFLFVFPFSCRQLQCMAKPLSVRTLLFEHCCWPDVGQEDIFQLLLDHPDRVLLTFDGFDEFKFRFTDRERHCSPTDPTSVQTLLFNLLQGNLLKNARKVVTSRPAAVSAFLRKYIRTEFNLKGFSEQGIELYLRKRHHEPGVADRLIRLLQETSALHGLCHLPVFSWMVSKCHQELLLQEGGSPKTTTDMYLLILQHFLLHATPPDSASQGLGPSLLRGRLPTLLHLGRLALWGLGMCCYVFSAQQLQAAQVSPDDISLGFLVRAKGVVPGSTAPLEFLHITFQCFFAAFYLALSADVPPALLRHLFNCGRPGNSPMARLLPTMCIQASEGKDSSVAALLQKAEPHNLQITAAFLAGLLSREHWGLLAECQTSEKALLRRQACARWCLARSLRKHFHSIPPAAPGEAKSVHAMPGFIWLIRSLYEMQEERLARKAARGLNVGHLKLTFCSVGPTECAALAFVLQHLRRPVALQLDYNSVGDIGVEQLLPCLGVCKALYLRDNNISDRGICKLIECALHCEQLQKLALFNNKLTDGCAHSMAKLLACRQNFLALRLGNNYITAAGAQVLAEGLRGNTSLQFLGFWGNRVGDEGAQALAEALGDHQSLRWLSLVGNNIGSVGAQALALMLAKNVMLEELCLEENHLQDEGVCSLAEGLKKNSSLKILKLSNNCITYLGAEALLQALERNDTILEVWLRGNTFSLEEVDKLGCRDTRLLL
Chain of DNA dC->dU-editing enzyme APOBEC-3A (P31941 whole entry): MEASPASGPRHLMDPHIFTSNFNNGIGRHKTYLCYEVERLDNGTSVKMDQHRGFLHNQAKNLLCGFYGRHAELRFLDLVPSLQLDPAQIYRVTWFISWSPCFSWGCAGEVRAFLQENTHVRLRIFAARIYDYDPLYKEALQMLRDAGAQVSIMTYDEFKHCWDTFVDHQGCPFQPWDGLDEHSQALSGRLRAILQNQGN

SMILES: COc1ccc(C2=Nn3c(nnc3-c3ccccc3Cl)SC2)cc1OC1CCCC1
- AC50 (INS1): 42.7 µM (active)
- CC50 (Vero): 10.7 µM (active)

SMILES: CC(C)N1C[C@@H](CN(C)Cc2ccc(Cl)c(Cl)c2)Oc2c(NC(=O)c3ccncc3)cccc2C1=O
- AC50 [1]: 0.000485 µM (active)

SMILES: Cc1cccc(NC(S)=NNC(=O)c2csc(C)c2)c1
- IC50 [2]: > 122 µM (inactive)

SMILES: O=C(O)c1nn(CCOc2c(Cl)cccc2Cl)c(=O)c2ccccc12
- CC50 (Vero): > 25 µM (active)

SMILES: COC[C@H](C)N1C[C@H](C)[C@@H](CN(C)Cc2ccc(Oc3ccccc3)cc2)Oc2c(NC(=O)c3ccncc3)cccc2C1=O
- AC50 [1]: 0.00119 µM (active)

SMILES: CC(C)[C@]12O[C@H]1[C@@H]1O[C@]13[C@]1(O[C@H]1C[C@H]1C4=C(CC[C@@]13C)C(=O)OC4)[C@@H]2O [TRIPTOLIDE]
- EC50 [3]: < 0.1 µM (active)
- EC50 [4]: < 0.1 µM (active)
- EC50 [5]: < 0.1 µM (active)
- EC50 (BJ [6]): < 0.104 µM (active)

SMILES: CC1CN(C2=CC(=[N+]3CCOCC3)CC(C)(C)C2)CC(C)O1 (stereo not given)
- IC50 [7]: 1.83 µM (active)

SMILES: Cn1cccc1C(=O)N1CCC2(CC1)CCN(C(c1ccccc1)c1ccccc1)CC2
- AC50 (Cytochrome P450 1A2): 5.01 µM (inconclusive)
- AC50 (Cytochrome P450 3A4): inconclusive

SMILES: COc1ccccc1CC(Cc1nc2ccccc2[nH]1)c1nc2ccccc2[nH]1 (stereo not given)
- EC50 [8]: 3.35 µM (active)
- IC50 [9]: 13.8 µM (active)

SMILES: Cc1cccc(NC2=NC(N)=NC(C)(C)N2)c1
- EC50 [10]: < 0.06 µM (active)
- EC50 (BJ [11]): > 150 µM (not active)
- EC50 (BJ [12]): 1.26 µM (inconclusive)
- EC50 (BJ [13]): > 150 µM (not active)
- EC50 [14]: 1.48 µM (active)
- EC50 (Streptococcus): 0.478 µM (active)
- EC50 (BJ [6]): > 133 µM (inactive)

SMILES: COc1cc(/C=C/c2ccc3cccc(O)c3n2)cc(Cl)c1OC
- EC50 (HEK293 [15]): 3.66 µM (active)
- EC50 (BJ [11]): 23.4 µM (active)
- IC50 (HEK293 [16]): 9.42 µM (active)
- EC50 (BJ [12]): 44.9 µM (active)
- IC50 (HEK293 [17]): > 20 µM (inactive)
- EC50 [18]: > 20 µM (inactive)
- IC50 (HEK293 [19]): 4.22 µM (inactive)
- IC50 (HEK293 [20]): > 20 µM (inactive)
- EC50 (BJ [13]): > 150 µM (not active)
- EC50 [14]: 19.1 µM (active)
- CC50 (Vero): 11.6 µM (active)

SMILES: O=C(Nc1cccc2ccccc12)N1CC=C(c2ccccc2)CC1
- EC50 [21]: 53.7 µM (inactive)
- EC50 [22]: > 99 µM (inactive)

SMILES: COc1ccc(CN2CCNCC2)c(OC)c1OC [TRIMETAZIDINE DIHYDROCHLORIDE]
- IC50 [23]: 8.26 µM (active)
- IC50 [24]: 7.19 µM (active)
- IC50 [7]: 8.85 µM (active)

SMILES: O=C(Nc1ccc(S(=O)(=O)Nc2nccs2)cc1)c1nn(-c2ccccc2)ccc1=O
- IC50 [7]: 3.52 µM (active)

SMILES: CN(C)Cc1c(C(=O)N/N=C/c2cccc(OCc3ccc(F)cc3)c2)nnn1-c1nonc1N
- EC50 [21]: 45.2 µM (inactive)
- EC50 [22]: > 99 µM (inactive)

SMILES: Cc1cc(C(=O)N/N=C/c2ccc(-c3ccccc3Cl)o2)[nH]n1
- EC50 [25]: 1.5 µM (active)
- EC50 [26]: > 60 µM (not active)
- IC50 [7]: 11.5 µM (active)

SMILES: CC(C)N1C[C@H](C)[C@@H](CN(C)Cc2ccc(Cl)c(Cl)c2)Oc2c(cccc2-c2nnc(-c3ccncc3)o2)C1=O
- AC50 [1]: 0.0624 µM (active)
